According to patent US6833372B2, “Non-peptide GnRH agents, Pharmaceutical compositions, and methods for their use” (Pfizer, Inc., priority 2002, dated 2004):
≈ marks a conversion by molar mass, not a printed value. Where two headings read alike, the source gives them in different places.

Legend:
mouse GnRH receptors = biological target: T1, mouse GnRH receptors (Mus musculus, UniProt Q01776); assay: Radioligand binding: inhibition of 125I-GnRH-A binding to mouse GnRH receptor membranes; conditions: HEK 293 cell membranes
T1 construct: expressed in transfected cells; host or cells: HEK 293 cells, stably transfected; membranes
T1 sequence (Q01776 1-327): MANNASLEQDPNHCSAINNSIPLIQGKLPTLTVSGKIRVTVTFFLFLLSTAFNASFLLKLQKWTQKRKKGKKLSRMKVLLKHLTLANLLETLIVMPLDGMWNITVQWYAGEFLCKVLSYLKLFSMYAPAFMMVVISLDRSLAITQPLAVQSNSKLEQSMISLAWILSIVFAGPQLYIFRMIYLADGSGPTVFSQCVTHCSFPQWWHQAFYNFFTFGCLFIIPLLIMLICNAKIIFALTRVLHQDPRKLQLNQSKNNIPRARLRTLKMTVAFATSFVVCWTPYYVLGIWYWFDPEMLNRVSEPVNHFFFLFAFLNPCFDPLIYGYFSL
Description: HEK 293 cells stably transfected with mouse or human GnRH receptors as described above were grown in Dulbecco's high-glucose, modified Eagle's medium (DMEM) supplemented with 0.2% G418, 10% fetal bovine serum (FBS) and 100 U/mL penicillin/streptomycin. GH3 cells stably transfected with the rat GnRH receptor (GGH3) were provided by Dr. William Chin (Harvard Medical School, Boston, Mass.). These cells have been extensively characterized previously (Kaiser et al., 1997). The cells were grown in low glucose DMEM containing: 100U/mL penicillin/streptomycin, 0.6% G418 and 10% heat-inactivated FBS.
HEK 293 cells containing mouse or human receptors, or rat pituitaries (Pel Freez Biologicals, Rogers, Ark.) were homogenized in buffer A containing: 50 mM Tris (pH 7.4), 0.32 M sucrose, 2 mM EGTA, 1 mM PMSF, 5 μg/ml aprotinen, 5 μg/ml Pepstatin A, and 1 μg/ml leupeptin. Homogenized cells were centrifuged at 4° C. at 20,000×g for 25 minutes, re-suspended in buffer A and re-centrifuged at 4° C. at 20,000×g for an additional 25 minutes. Total membrane protein was determined with a BCA kit (Pierce, Rockford, Ill.). Membranes were stored at −70° C. at a final membrane protein concentration of approximately 5 mg/ml.
The radioiodinated agonist analog of GnRH, [des-Gly^10,D-Ala^6]GnRH ethylamide (^125I-GnRH-A), was used as the radioligand. […] The reaction mixture was vortexed and incubated for 1 minute at room temperature. After one minute, the mixture was vortexed and allowed to incubate for an additional minute. 2 ml of 0.5 M acetic acid/1% BSA was added to the reaction tube and the mixture was added to a C18 Sep-Pak cartridge. The cartridge was washed with subsequent washes of 5 ml H2O and 5 ml 0.5 M acetic acid and then eluted with 5×1 ml of 60% CH3CN/40% 0.5 M acetic acid. The eluate was diluted with 3× volume of HPLC buffer A (0.1% TFA in H2O) and loaded onto a C18 column. The iodinated product was eluted over 20-25 min with a gradient of 25-100% CH3CN containing 0.1% TFA. The radioactive fractions (750 μl/fraction) were collected into clean polypropylene tubes containing 100 μl of 10% BSA. Fractions were assessed for biological activity by radioligand binding. Specific activity of the radioligand was approximately 2200 Ci/mmol.
Membranes were diluted to 0.01-0.5 mg/ml (depending upon the species of receptor) with assay buffer containing 50 mM HEPES (pH 7.4), 1 mM EDTA, 2.5 mM MgCl2, and 0.1% BSA. Membranes (diluted to utilize similar receptor numbers between assays) were incubated with approximately 0.04-0.06 nM ^125I-GnRH-A in the presence or absence of competing agents (0.1-10,000 nM) in a total volume of 200 μl in 96-well polypropylene plates for 1 hour at room temperature. Assays were stopped by rapid filtration onto 96-well GF/C filters soaked in 0.1% polyethylenimine (PEI) utilizing a Packard 96-well cell harvester. Filters were washed three times with ice-cold PBS (50 mM NaPO4, 0.9% NaCl, 2 mM MgCl2, and 0.02% NaN3, pH 7.4). 35 μl of scintillation cocktail was added to each filter well and filters were counted on a Packard Topcount. Control dose-response curves were generated to GnRH (0.1 nM-100 nM) in each competition binding experiment. Ki values were calculated from IC50 values according to Cheng et al., Biochemical Pharmacol. 22: 3099-3108, 1973. [formula]

[1] = In vitro metabolism: disappearance of parent compound in human liver microsomes; format: in vitro ADME; conditions: 5 uM compound, 0.5 mg/ml protein, 2 mM NADPH, 30 minutes 37° C.
Outline: (§1)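 Microsomes from human, rat (male, female), dog and monkey liver incubated with 5 uM compound, 0.5 mg/ml protein and 2 mM NADPH in 50 mM K phosphate, pH 7.4, for 30 min at 37° C. Reaction stopped with acetonitrile; parent compound remaining measured by LC-MS.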

[2] = In vitro metabolism: disappearance of parent compound in rat liver microsomes (male, female); format: in vitro ADME; conditions: 5 uM compound, 30 minutes 37° C.; for Fem. Rat (FR) % rem. 30′: female rat liver microsomes; for Male Rat (MR) % rem. 30′: male rat liver microsomes
Outline: as §1

[3] = In vitro metabolism: disappearance of parent compound in dog liver microsomes; format: in vitro ADME; conditions: 5 uM compound, 30 minutes 37° C.
Outline: as §1

[4] = In vitro metabolism: disappearance of parent compound in monkey liver microsomes; format: in vitro ADME; conditions: 5 uM compound, 30 minutes 37° C.
Outline: as §1

Rat plasma % remain = format: in vitro ADME
H S A = H S A (Homo sapiens, UniProt P02768); assay: H S A column α; format: in vitro ADME
[5] = Solubility at pH2 and pH6; format: physicochemical
[6] = pH 6, aqueous buffer, pH6, read-out: Solubility μg/ml pH6

Chain of H S A (P02768 25-609): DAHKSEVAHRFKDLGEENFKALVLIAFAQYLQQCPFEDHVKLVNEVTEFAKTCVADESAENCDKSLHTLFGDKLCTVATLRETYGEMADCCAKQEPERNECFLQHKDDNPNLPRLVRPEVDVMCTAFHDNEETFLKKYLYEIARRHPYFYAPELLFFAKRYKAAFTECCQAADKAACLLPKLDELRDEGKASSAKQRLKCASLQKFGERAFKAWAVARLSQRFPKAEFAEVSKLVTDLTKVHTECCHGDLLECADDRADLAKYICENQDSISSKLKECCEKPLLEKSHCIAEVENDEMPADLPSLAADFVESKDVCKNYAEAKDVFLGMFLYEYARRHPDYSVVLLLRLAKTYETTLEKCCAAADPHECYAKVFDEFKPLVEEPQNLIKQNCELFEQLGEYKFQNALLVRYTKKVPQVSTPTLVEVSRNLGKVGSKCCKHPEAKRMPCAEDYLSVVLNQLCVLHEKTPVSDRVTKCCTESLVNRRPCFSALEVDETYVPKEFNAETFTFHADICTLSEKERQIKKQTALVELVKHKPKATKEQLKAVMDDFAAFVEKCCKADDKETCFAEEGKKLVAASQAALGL

Row | Ki (mouse GnRH receptors) | Human % rem. 30′ [1] | Fem. Rat (FR) % rem. 30′ [2] | Male Rat (MR) % rem. 30′ [2] | Dog % rem. 30′ [3] | Monkey % rem. [4] | Rat plasma % remain (Rat plasma % remain) | H S A column α (H S A) | solubility [5, 6] | solubility ([5]; pH 2, simulated gastric fluid, pH2, read-out: Solubility μg/ml pH2) | SMILES
1 | 0.42 nM | 35% | 72% | 1% | 0% | 0% | 100% | 13 | 1 µg/mL (≈ 2.03 µM) |  | COc1nc(OC)c(NC(=O)c2ccc(Cc3cc4c(cc3C)C(C)(C)CCC4(C)C)o2)c(OC)n1 [Example C1, 5-(3,5,5,8,8-Pentamethyl-5,6,7,8-tetrahydro-naphthalen-2-ylmethyl)-furan-2-carboxylic Acid (2,4,6-trimethoxy-pyrimidin-5-yl)-amide]
2 |  | 83% | 75% | 44% | 49% | 7% | 100% | 0.4 | > 15 µg/mL |  | COc1nc(OCCO)nc(OC)c1NC(=O)c1ccc(Cc2cc3c(cc2C)C(C)(C)OC3(C)C)o1 [Example A3, 5-(1,1,3,3,6-Pentamethyl-1,3-dihydro-isobenzofuran-5-ylmethyl)-furan-2-carboxylic acid [2-(2-hydroxy-ethoxy)-4,6-dimethoxy-pyrimidin-5-yl]-amide]
3 | 4.2 nM | 60% | 74% | 11% | 22% | 0% | 100% | 1 | > 12 µg/mL | > 12 µg/mL | COc1nc(OC)c(NC(=O)c2ccc(Cc3cc4c(cc3C)C(C)(C)OC4(C)C)o2)c(OC)n1 [Example A1, 5-(1,1,3,3,6-Pentamethyl-1,3-dihydro-isobenzofuran-5-ylmethyl)-furan-2-carboxylic Acid (2,4,6-trimethoxy-pyrimidin-5-yl)-amide]
4 | 3.4 nM | 40% | 35% | 11% | 4% | 12% | 83% | >30 | 0.4 µg/mL (≈ 0.79 µM) |  | COc1nc(N(C)C)nc(OC)c1NC(=O)c1ccc(Cc2cc3c(cc2C)C(C)(C)CCC3(C)C)o1 [Example B2, 5-(3,5,5,8,8-Pentamethyl-5,6,7,8-tetrahydro-naphthalen-2-ylmethyl)-furan-2-carboxylic Acid (dimethylamino-dimethoxy-pyrimidin-5-yl)-amide]
